PMC9131456, “Structure-Based Discovery of Lipoteichoic Acid Synthase Inhibitors” (Journal of Chemical Information and Modeling, 2022)

Experiments:
[1] = test system: S. aureus (strain Newman); test: Antimicrobial microdilution broth assay (growth inhibition); type: cell-based; conditions: S. aureus strain Newman growth, OD600nm after 20 h at 37 °C, MH2 broth, mean ± s.e.m., n = 3
Procedure: All the compounds tested in this study were dissolved in dimethyl sulfoxide (DMSO) at an initial stock concentration of 20 mM and stored at −20 °C. These compounds were tested for their antimicrobial activity using the microdilution broth method[66] following the protocol described by Richter et al.[30] Briefly, overnight cultures of S. aureus (strain Newman) grown at 37 °C in cation-adjusted Mueller Hinton II (MH2) broth were adjusted to an OD600nm of 0.6 before back-diluted with a factor of 1:2000 with the same broth. After that, 200 μL of the diluted bacterial culture were dispensed into each well of 96-well plates supplemented with the compounds to the desired concentrations. The plates were then sealed with a moisture membrane barrier and incubated statically for 20 h at 37 °C. After that, the OD600nm values of the cultures in each well were measured using a CLARIOstar microplate reader (BMG Labtech). The procedures for the potentiation assays were by large the same as described above with some variations. In such assays, MRSA strain COL was grown in the 96-well plates supplemented with different concentrations of compound 9 with methicillin, carbenicillin, or polymyxin B in a checkerboard format. Their synergistic effects were quantified by OD600nm measurements using a CLARIOstar microplate reader (BMG Labtech).

HEK293 cells = test: LDH release cytotoxicity assay; type: cell-based, human; conditions: 200 μM compound, 24 h
Procedure: The human embryonic kidney (HEK293) cells were maintained in Dulbecco’s modified Eagle medium (DMEM) supplemented with 10% fetal bovine serum and 100 units/mL of penicillin–streptomycin. For the cell viability assays, cells were seeded onto 96-well plates at a density of 4 × 10^4 cells/well and grown at 37 °C at 5% CO2. After incubating the cells for 24 h, the culture media were replaced with fresh DMEM supplemented with 200 μM of the compounds 1771, compound 4, compound 8, and compound 9 and incubated further for an additional 24 h. The cytotoxicity of these drugs was measured using the LDH Cytotoxicity Assay Kit according to the manufacturer’s instruction (Thermo Scientific). The absorbance at 490 nm was measured with a CLARIOstar microplate reader (BMG Labtech), and the reference wavelength was set at 630 nm.

IsaA = test: SDS-PAGE and LC/MS-MS analysis of the lysate of treated S. aureus; type: cell-based; conditions: S. aureus treated with 100 μM compound, SDS-PAGE
[2] = test system: LTA production in S. aureus (strain RN4220); test: Western blot (immunoblotting) of LTA in S. aureus cell extracts; type: cell-based; conditions: for LTA production: Western blot of S. aureus cell extracts, 10 μM in Figure S14, 100 μM for compound 8
Procedure: The procedures of LTA detection using Western Blot had previously been reported by Gründling et al.[52] To determine the effect of the compounds on LTA production, 10 mL cultures of S. aureus (strain RN4220) in MH2 broth were incubated in an orbital shaker at 37 °C with either the compounds or DMSO. When the control cultures had reached an OD600nm ∼ 1, the bacteria were pelleted and the OD600nm of the cultures normalized by resuspension with the appropriate amount of MH2 broth. Subsequently, 1 mL from each cultures was mixed with 0.5 mL of 0.1 mm glass beads, and the bacteria were lyzed by vortexing at 4 °C for 45 min. After lysis, glass beads were removed by centrifugation at 200g, and the supernatants were transferred to a new tube. The membrane-associated LTA from each culture were pelleted by an additional centrifugation step of the supernatant at 16,000g for 15 min before resuspension in 30 μL of 2× SDS. The samples were boiled at 80 °C for 20 min, and the solubilized fractions were loaded onto 15% SDS-polyacrylamide gels prior to electrophoresis at 120 V for 1.5 h. The LTA on the gels were electrotransferred onto FL-immobilon PVDF membranes at 25 V for another 1.5 h. After the electrotransfer, the membranes were blocked with 5% skimmed milk for 1 h and incubated with the antimouse LTA antibody (clone G43J, Thermo Fisher Scientific; 1:1000 dilution) overnight at 4 °C. After washing, the membranes were incubated with antimouse IRDye 680RD (1:10,000 dilution) for 1 h, washed, and visualized using the Odyssey CLx Imaging System.

His347Ala eLtaS = target: T1, His347Ala eLtaS (Staphylococcus aureus, UniProt Q2G093, H347A); test: Isothermal titration calorimetry, His347Ala eLtaS; type: binding, S. aureus; conditions: ITC, compared with wild-type eLtaS
T1 construct: LtaS is a transmembrane protein with a large extracellular catalytic domain (denoted as eLtaS); His-tag; made in house; host or cells: E. coli Rosetta 2 (DE3), pET19m
Description: (§1) The plasmid [Rosetta pProEX-eLtaS] from E coli strain ANG571 was extracted using the QIAprep Spin Miniprep Kit. Meanwhile, the genes encoding the mutant LtaS with mutations His416Ala, His347Ala, and Arg356Ala were extracted from the strains ANG1115, ANG1175, and ANG1178, respectively, using the QIAamp DNA Mini Kit. These genes were amplified using PCR, cut with NdeI/BamHI, and ligated into a pET19m transformed into E. coli Rosetta 2 (DE3) strain.
(§2) Each of the eLtaS proteins were purified from 6 L of E. coli cultures that were grown with aeration in LB medium supplemented with 200 μg/mL of carbenicillin and 34 μg/mL of chloramphenicol at 37 °C. When the cultures reached an OD600nm of about 0.6, protein expression was induced with 1 mM IPTG final concentration at 21 °C overnight. […] All four eLtaS proteins were subjected to circular dichroism analysis, and their exact masses were determined using MS.
(§3) The thawed eLtaS proteins were dialyzed using D-Tube Dialyzer Mini (EMD Millipore) in 20 mM Trizma-HCl pH 7.5, 100 mM NaCl with Chelex 100 (Sigma-Aldrich) for 1.5 h twice on the same day prior to the ITC experiments. […] Data were first analyzed in NITPIC[69] for baseline calculations and then fit for thermodynamic parameters using the OneSite model in Origin 7.0 software.

LTA synthase (LtaS) = test system: LTA synthase (LtaS); set-up: method as in PMID 23401520; conditions: by inhibiting LtaS; cited from earlier work
[3] = test system: S. aureus (strain Newman); test: Non-lethal S. aureus lung infection mouse model; type: in vivo, BALB/c female mice; conditions: 300 μg intranasally, infected BALB/c mice
Description: All in vivo experiments were done at the University of Liverpool under the UK Animals (Scientific Procedures) Act 1986 guidelines. The protocols were approved by the UK Home Office and by the University of Liverpool Animal Welfare and Ethics Committee. Six to eight week old BALB/c female mice (Charles River, UK) were used in the study after being left to acclimatize for a minimum of 7 days prior to experimentation. Mice were intranasally infected with 5 × 10^7 CFU of the S. aureus (strain Newman) in 50 μL of sterile phosphate-buffered saline (PBS). The bacterial dose was prepared by incubating 50 μL of an overnight culture in brain heart infusion (BHI) broth (Oxoid, Thermo Fisher Scientific, UK) into 5 mL of fresh BHI. Once the culture reached an OD600 = 2–3, the bacterial numbers were adjusted to the desired dose using sterile PBS. Three hours postinfection, mice were intranasally treated with either 50 μL of sterile PBS (control) or with 300 μg of compounds 1771 and compound 4 dissolved in 50 μL of sterile PBS. The final DMSO concentration was 5%, and the PBS control also contained 5% DMSO. Mice were culled 24 h postinfection; lungs were collected, homogenized, and serially diluted to determine CFU counts.[70] Significant differences were determined using the unpaired two-tailed Student t-test (p = 0.0013).

[4] = set-up: method as in PMID 23401520; conditions: lethal sepsis mouse model; cited from earlier work
wild-type eLtaS = target: T2, wild-type eLtaS (Staphylococcus aureus, UniProt Q2G093); test: Isothermal titration calorimetry, wild-type eLtaS; type: binding, S. aureus; conditions: ITC, 25 °C, wild-type eLtaS titrated into 10 μM inhibitor
T2 construct: LtaS is a transmembrane protein with a large extracellular catalytic domain (denoted as eLtaS); His-tag; made in house; host or cells: E. coli (Rosetta; plasmid pProEX-eLtaS from strain ANG571)
Procedure: Each of the eLtaS proteins were purified from 6 L of E. coli cultures that were grown with aeration in LB medium supplemented with 200 μg/mL of carbenicillin and 34 μg/mL of chloramphenicol at 37 °C. When the cultures reached an OD600nm of about 0.6, protein expression was induced with 1 mM IPTG final concentration at 21 °C overnight. Later, the bacteria were harvested by centrifugation at 11,899g, and the bacterial pellets were resuspended with lysis buffer (50 mM Trizma-HCl, pH 7.5, 300 mM NaCl, 5% glycerol, 10 mM imidazole, 5 mM β-mercaptoethanol). The bacterial pellets were lyzed by three passages through a high-pressure emulsifier, and the lysates were centrifuged at 47,596g for 30 min at 4 °C. The resulting supernatants containing the His-tagged eLtaS proteins were filtered with a 0.22 μm filter before being loaded onto a 5 mL Ni-NTA column using an ÄKTApure protein purification system. The bound proteins were subsequently washed with lysis buffer, eluted using the elution buffer (50 mM Trizma-HCl, pH 7.5, 300 mM NaCl, 5% glycerol, and 300 mM imidazole), and dialyzed twice using the dialysis buffer [25 mM Trizma-HCl, pH 7.5, 100 mM NaCl, 10% glycerol, 1 mM ethylenediaminetetraacetic acid (EDTA)]. After dialysis, protein purity was confirmed to be >90% using SDS-PAGE. Proteins were then concentrated, snap-frozen in liquid N2, and stored at −80 °C prior to usage. All four eLtaS proteins were subjected to circular dichroism analysis, and their exact masses were determined using MS.
The thawed eLtaS proteins were dialyzed using D-Tube Dialyzer Mini (EMD Millipore) in 20 mM Trizma-HCl pH 7.5, 100 mM NaCl with Chelex 100 (Sigma-Aldrich) for 1.5 h twice on the same day prior to the ITC experiments. After dialysis, the eLtaS proteins were centrifuged at 20,000g at 10 °C for 10 min. The supernatants were transferred to new microcentrifuge tubes and diluted to 100 μM using the same buffer as above with an addition of 0.1% (v/v) DMSO. Meanwhile, the eLtaS inhibitors were diluted to 10 μM using the same buffer and maintaining 0.1% (v/v) DMSO. The eLtaS proteins were titrated into the main cell containing the inhibitors using a VP-ITC at 25 °C. The injection parameters were set as follows: a reference power of 15 μcal/s, an initial injection of 3 μL over a duration of 3.6 s, and then subsequent injections of 10 μL over a duration of 12 s. All injections were spaced with 240 s with a filter period of 2 s. Data were first analyzed in NITPIC[69] for baseline calculations and then fit for thermodynamic parameters using the OneSite model in Origin 7.0 software.

Arg356Ala eLtaS = target: T3, Arg356Ala eLtaS (Staphylococcus aureus, UniProt Q2G093, R356A); test: Isothermal titration calorimetry, Arg356Ala eLtaS; type: binding, S. aureus; conditions: ITC, compared with wild-type eLtaS
T3 construct: LtaS is a transmembrane protein with a large extracellular catalytic domain (denoted as eLtaS); His-tag; made in house; host or cells: E. coli Rosetta 2 (DE3), pET19m
Description: as §1, §2, §3

His416Ala eLtaS = target: T4, His416Ala eLtaS (Staphylococcus aureus, UniProt Q2G093, H416A); test: Isothermal titration calorimetry, His416Ala eLtaS; type: binding, S. aureus; conditions: ITC, compared with wild-type eLtaS
T4 construct: LtaS is a transmembrane protein with a large extracellular catalytic domain (denoted as eLtaS); His-tag; made in house; host or cells: E. coli Rosetta 2 (DE3), pET19m
Description: as §1, §2, §3

[5] = Staphylococcus aureus, NEWMAN, 20 h

## O=C(COC(=O)/C=C/c1ccc2ccccc2n1)Nc1nnc(-c2ccccc2)o1 [Compound 7]
[1]
  IC50: 12.4 ± 1.9 µM

## O=C(Nc1ccc(Oc2ccc(NC(=O)Nc3ccc([N+](=O)[O-])cc3)cc2)cc1)Nc1ccc([N+](=O)[O-])cc1 [Compound 8]
HEK293 cells
  cytotoxicity (LDH release): cytotoxic
IsaA
  protein upregulation in the lysate (IsaA, a peptidoglycan hydrolase): upregulated a 24 kDa protein
[2]
  LTA production: did not decrease LTA production
[2]; Western blot, 100 μM compound
  electrophoretic mobility of the LTA extracted from treated S. aureus: decreased electrophoretic mobility and higher heterogeneity
[1]
  IC50: 29.4 µM
[1]; [5]
  IC50: 29.4 µM

## Cc1cccc(COc2ccccc2C(=O)OCC(=O)Nc2nnc(-c3ccccc3)o2)c1 [Compound 6]
[2]
  LTA production: able to reduce LTA production
[1]
  IC50: 11.1 ± 0.49 µM

## O=C(COC(=O)Cc1coc2ccc3ccccc3c12)Nc1nnc(-c2ccccc2)o1 [compound 1771]
His347Ala eLtaS
  binding to the His347Ala eLtaS variant: abolished
LTA synthase (LtaS)
  LTA synthesis: able to suppress LTA synthesis
[3]
  tolerability in mice: did not tolerate the latter well
[4]
  in vivo stability: lost activity over time due to in vivo instability
  survival of infected mice: temporarily prolong the survival of the infected mice
wild-type eLtaS
  Kd: 0.457 ± 0.0071 µM
Arg356Ala eLtaS
  binding affinity to the Arg356Ala eLtaS variant: slight increase in binding affinities
His416Ala eLtaS
  binding affinity to the His416Ala eLtaS variant: slight increase in binding affinities
[1]
  IC50: 14.9 ± 1.59 µM
[1]; [5]
  IC50: 14.5 µM

## Cc1csc(SCc2ccccc2C(=O)OCC(=O)Nc2nnc(-c3ccccc3)o2)n1 [Compound 3]
[2]
  LTA production: able to reduce LTA production
[1]
  IC50: 13.4 ± 0.35 µM

## O=C(COC(=O)CSC(c1ccccc1)c1ccccc1)Nc1nnc(-c2ccccc2)o1 [Compound 5]
[1]
  IC50: 17.5 ± 1.08 µM

## COc1ccccc1Nc1ncccc1C(=O)OCC(=O)Nc1nnc(-c2ccccc2)o1 [Compound 2]
[1]
  IC50: 12.3 ± 0.38 µM
